In patent US10898469B2, “Imidazolylamide derivative” (Sumitomo Dainippon Pharma Co., Ltd., priority 2016, dated 2021):

Columns and labels:
Assay type in all cases: cell-based, human
HT-29 cells = assay: Inhibition test for sphere-forming ability of cancer cells (Test Example 1), HT-29; settings: for (100%-inhibition rate of cell proliferation) at 1 μmol/L, HT-29: value with %; for IC50: concentration for 50% inhibition of cell proliferation, read-out: IC50 (μmol/L) HT-29 (Sphere IC50 value)
In short: (§1)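 Sphere IC50 (μmol/L) derived from CellTiter-Glo luminescence after 4 days of compound treatment (final DMSO 0.1%). Non-adherent, serum-free culture of 350-800 cells/well in DMEM/F12 supplemented with 2% B27, EGF, bFGF and insulin assessed self-renewal.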

HCT-116 cells = assay: Inhibition test for sphere-forming ability of cancer cells (Test Example 1), HCT-116; settings: for IC50: concentration for 50% inhibition of cell proliferation, read-out: IC50 (μmol/L) HCT-116 (Sphere IC50 value); for inhibitory effect on the sphere-forming ability of cancer cells: Test Example 1, summary in words, cell line not given (HCT-116, HT-29, FaDu tested)
In short: as §1

FaDu cells = assay: Inhibition test for sphere-forming ability of cancer cells (Test Example 1), FaDu; settings: for (100%-inhibition rate of cell proliferation) at 1 μmol/L, FaDu: value with %; for IC50: concentration for 50% inhibition of cell proliferation, read-out: IC50 (μmol/L) FaDu (Sphere IC50 value)
In short: as §1

[1] = HCT-116 cells, 1 μmol/L, value with %
[2] = Homo sapiens, read-out: (100%-inhibition rate of cell proliferation) at 1 μmol/L, 1 μmol/L, value with %

| Structure (SMILES) | IC50 (HT-29 cells) [µmol/L] | IC50 (HCT-116 cells; HCT-116 cells) [µmol/L] | IC50 (FaDu cells) [µmol/L] | (100%-inhibition rate of cell proliferation) at 1 μmol/L, HT-29 (HT-29 cells) [%] | (100%-inhibition rate of cell proliferation) at 1 μmol/L, HCT-116 (HCT-116 cells; [1]) [%] | (100%-inhibition rate of cell proliferation) at 1 μmol/L, FaDu (FaDu cells) [%] | other results |
| --- | --- | --- | --- | --- | --- | --- | --- |
| CCCOc1ccc(C(=O)Nc2cn(Cc3cccc(Cl)c3)cn2)cn1 [Example 136] | – | – | – | 71.8 | 44.2 | 75.2 | – |
| CC(C)Oc1ccc(C(=O)Nc2cn(Cc3cccc(Cl)c3)cn2)cc1 [Example 140] | – | – | – | – | – | – | viability at 1 µM (HT-29 cells; [2]): 83%; viability at 1 µM (HCT-116 cells; Homo sapiens, read-out: (100%-inhibition rate of cell proliferation) at 1 μmol/L, HCT-116 cells, 1 μmol/L, value with %): 31.4%; viability at 1 µM (FaDu cells; [2]): 81.8% |
| COc1ccc(Cn2cnc(NC(=O)c3ccc(OC)c(OC)c3)c2)cc1 [Example 164] | – | – | – | 89.0 | 37.4 | 92.3 | – |
| COc1ccc(C(=O)Nc2cn(Cc3cccc(C(F)(F)F)c3)cn2)cc1OC [Example 165] | – | – | – | 28.0 | 31.9 | 24.1 | – |
| COc1ccc(C(=O)Nc2cn(Cc3cccc(OC(F)(F)F)c3)cn2)cc1OC [Example 166] | – | – | – | 33.0 | 36.8 | 23.8 | – |
| COc1ccc(C(=O)Nc2cn(Cc3c(F)ccc(C)c3F)cn2)cc1OC [Example 167] | – | – | – | 15.6 | 30.5 | 59.3 | – |
| COc1ccc(C(=O)Nc2cn(Cc3ccc(C(C)C)cc3)cn2)cc1OC [Example 168] | – | – | – | 8.6 | 32.1 | 32.3 | – |
| COc1ccc(C(=O)Nc2cn(Cc3cccc(OCc4ccccc4)c3)cn2)cc1OC [Example 169] | – | – | – | 35.4 | 50.9 | 68.6 | – |
| COc1ccc(C(=O)Nc2cn(Cc3cc(Cl)nc(Cl)c3)cn2)cc1OC [Example 170] | – | – | – | 24.9 | 33.8 | 27.1 | – |
| COc1ccc(C(=O)Nc2cn(Cc3ccc(C(F)(F)F)o3)cn2)cc1OC [Example 171] | – | – | – | 33.8 | 36.4 | 29.6 | – |
| COc1ccc(C(=O)Nc2cn(Cc3ccc4c(c3)C(C)(C)CCC4(C)C)cn2)cc1OC [Example 172] | – | – | – | 16.6 | 34.3 | 42.3 | – |
| COc1ccc(C(=O)Nc2cn(Cc3ccc(Cl)s3)cn2)cc1OC [Example 173] | – | – | – | 21.6 | 29.5 | 21.4 | – |
| O=C(Nc1cn(Cc2cccc(C(F)(F)F)c2)cn1)c1ccc(CC(F)F)nc1 [Example 187] | 3.74 | 7.31 | 8.64 | – | – | – | – |
| O=C(Nc1cn(Cc2cccc(C(F)(F)F)c2)cn1)c1ccc2cccnc2c1 [Example 195] | 5.55 | > 10 | > 10 | – | – | – | – |
| O=C(Nc1cn(Cc2cccc(Cl)c2)cn1)c1ccc(OCc2ccccc2)cc1 [Example 197] | – | – | – | 39.0 | 44.3 | 28.9 | – |
| Cc1ccc(C(=O)Nc2cn(Cc3cccc(Cl)c3)cn2)cn1 [Example 198] | – | – | – | 99.8 | 55.3 | 64.5 | – |
| O=C(Nc1cn(Cc2cccc(C(F)(F)F)c2)cn1)c1ccc(=O)[nH]c1 [Example 199] | – | – | – | 31.2 | 39.8 | 25.9 | – |
| CCOc1ccc(C(=O)Nc2cn(Cc3cccc(C(F)(F)F)c3)cn2)cn1 [Example 210] | 0.82 | 0.81 | 0.79 | – | – | – | – |
| O=C(Nc1cn(Cc2cccc(C(F)(F)F)c2)cn1)c1ccc(OCC(F)(F)F)nc1 [Example 214] | 0.9 | 5.31 | 3.52 | – | – | – | – |
| Cc1ccc(F)c(Cn2cnc(NC(=O)c3ccc(OC(C)C)nc3)c2)c1F [Example 217] | 0.48 | 0.22 | 0.75 | – | – | – | – |

The next lines start with results.

| IC50 (HT-29 cells) [µmol/L] | IC50 (HCT-116 cells; HCT-116 cells) [µmol/L] | IC50 (FaDu cells) [µmol/L] | Structure (SMILES) | (100%-inhibition rate of cell proliferation) at 1 μmol/L, HT-29 (HT-29 cells) [%] | (100%-inhibition rate of cell proliferation) at 1 μmol/L, HCT-116 (HCT-116 cells; [1]) [%] | (100%-inhibition rate of cell proliferation) at 1 μmol/L, FaDu (FaDu cells) [%] | other results |
| --- | --- | --- | --- | --- | --- | --- | --- |
| 3.43 | 7.16 | 5.16 | O=C(Nc1cn(Cc2cccc(Cl)c2)cn1)c1ccc2nccn2c1 [Example 176] | – | – | – | – |
| 3.78 | 0.76 | 0.89 | O=C(Nc1cn(Cc2cccc(Cl)c2)cn1)c1ccc(-n2cccn2)nc1 [Example 196] | – | – | – | – |
| 5.68 | 0.96 | 6.87 | COc1ccc(C(=O)Nc2cn(Cc3cccc(Cl)c3)cn2)cn1 [Example 202] | – | – | – | – |
| 0.71 | 0.9 | 0.9 | CCOc1ccc(C(=O)Nc2cn(Cc3cccc(Cl)c3)cn2)cn1 [Example 203] | – | – | – | – |
| 0.72 | 4.56 | 0.86 | COCCCOc1ccc(C(=O)Nc2cn(Cc3cccc(Cl)c3)cn2)cn1 [Example 204] | – | – | – | – |
| 2.39 | > 10 | 6.39 | CN(C)CCOc1ccc(C(=O)Nc2cn(Cc3cccc(Cl)c3)cn2)cn1 [Example 205] | – | – | – | – |
| 0.09 | 0.69 | 0.09 | O=C(Nc1cn(Cc2cccc(Cl)c2)cn1)c1ccc(OCc2ccccc2)nc1 [Example 206] | – | – | – | inhibitory effect on the sphere-forming ability of cancer cells (HCT-116 cells): particularly potent inhibitory effect |
| 0.67 | 0.83 | 0.89 | CC(C)Oc1ccc(C(=O)Nc2cn(Cc3cccc(Cl)c3)cn2)cn1 [Example 207] | – | – | – | – |
| 0.81 | > 10 | 5.33 | O=C(Nc1cn(Cc2cccc(Cl)c2)cn1)c1ccc(OC2CCCC2)nc1 [Example 208] | – | – | – | – |
| 4.95 | 4.24 | 6.45 | COc1ccc(C(=O)Nc2cn(Cc3cccc(C(F)(F)F)c3)cn2)cn1 [Example 209] | – | – | – | – |
| 0.99 | 0.78 | 0.84 | COc1ccc(C(=O)Nc2cn(Cc3cccc(OC(F)(F)F)c3)cn2)cn1 [Example 212] | – | – | – | – |
| 0.65 | 0.81 | 0.79 | CCOc1ccc(C(=O)Nc2cn(Cc3cccc(OC(F)(F)F)c3)cn2)cn1 [Example 213] | – | – | – | – |
| 0.66 | 0.88 | 0.85 | CC(C)Oc1ccc(C(=O)Nc2cn(Cc3cccc(OC(F)(F)F)c3)cn2)cn1 [Example 215] | – | – | – | – |
| 0.07 | 0.08 | 0.09 | COc1ccc(C(=O)Nc2cn(Cc3c(F)ccc(C)c3F)cn2)cn1 [Example 216] | – | – | – | inhibitory effect on the sphere-forming ability of cancer cells (HCT-116 cells): particularly potent inhibitory effect |
| 0.06 | 0.58 | 0.08 | COc1cc(C(=O)Nc2cn(Cc3cccc(Cl)c3)cn2)cnc1OC [Example 218] | – | – | – | inhibitory effect on the sphere-forming ability of cancer cells (HCT-116 cells): particularly potent inhibitory effect |
| 8.34 | 0.92 | 9.4 | O=C(Nc1cn(Cc2cccc(Cl)c2)cn1)c1ccc(OCC(F)(F)F)nc1 [Example 219] | – | – | – | – |
